Measurements from patent US5834487A, “Inhibition of 26S and 20S proteasome by indanones” (CV Therapeutics, priority 1996, dated 1998).
Converted amounts (≈) assume the structure as drawn. Non-standard residues stand in square brackets, D forms with d. Residues, ends and D or L forms follow the SMILES beside them. *: point of attachment. Nva = CCC[C@H](N)C(=O)O; Cbz = O=C(OCc1ccccc1)*

Legend:
[1] = system: LPS induced TNF synthesis; assay: Inhibition of LPS induced TNF synthesis in RAW cells (ELISA); assay type: cell-based; settings: 1 hour pretreatment, LPS 100 ng/ml, supernatant after 1 hour
Method: Compounds prepared according to the method of Example 1 were tested for the inhibition of LPS induced TNF synthesis. RAW cells were pretreated with different concentrations of test compound for 1 hour prior to the administration of lipopolysaccharide (100 ng/mi). Cell culture supernatants were harvested after 1 hour and assayed for TNF concentration by ELISA (Biosource)

Panc-I cells = assay: Celltiter 96 Aqueous cell proliferation assay, Panc-I; assay type: cell-based; settings: 18 hours with compound
Method: (§1) Compounds prepared according to the method of Example 1 were assayed against several different cell lines. Cell monolayers were cultured in the presence of test compound for 18 hours to access their ability to inhibit cell proliferation. Cell proliferation was determined colorimetrically using the Celltiter 96 Aqueous non-radioactive cell proliferation assay (Promega) where cell proliferation is directly proportional to absorbance at 490 nm. Results are quoted as the IC50 in μg/ml for inhibition of cell proliferation in various cell types.

[2] = biological target: T1, 20S catalytic subunit of the proteasome (multicatalytic proteinase complex) (Bos taurus, UniProt Q32KL2); assay: 20S proteasome chymotryptic activity, fluorogenic peptide cleavage; assay type: biochemical, bovine; settings: 50 μM succinyl-leu-leu-val-tyr-7-amino-4-methyl coumarin, 15 minutes at 37° C, pH7.5
T1 construct: was purified to homogeneity from bovine brain according to published methods; from tissue; host or cells: bovine brain
Summary of the method: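 Purified bovine-brain 20S proteasome (2 μg) with 0.1-100 μg/ml inhibitor in 50 mM HEPES, 0.1% SDS, pH 7.5. Reaction started with 50 μM Suc-LLVY-AMC, 15 min at 37° C, stopped with pH 4.0 acetate; liberated AMC read by fluorescence (ex 370, em 430 nm).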

OVCAR cells = assay: Celltiter 96 Aqueous cell proliferation assay, OVCAR; assay type: cell-based; settings: 18 hours with compound
Method: as §1

RAW cells = assay: Celltiter 96 Aqueous cell proliferation assay, RAW; assay type: cell-based; settings: 18 hours with compound
Method: as §1

[3] = biological target: T2, chymotrypsin-like activity associated with the proteasome (Homo sapiens, UniProt P28074); settings: literature value; cited from earlier work
T2 sequence (P28074 60-263): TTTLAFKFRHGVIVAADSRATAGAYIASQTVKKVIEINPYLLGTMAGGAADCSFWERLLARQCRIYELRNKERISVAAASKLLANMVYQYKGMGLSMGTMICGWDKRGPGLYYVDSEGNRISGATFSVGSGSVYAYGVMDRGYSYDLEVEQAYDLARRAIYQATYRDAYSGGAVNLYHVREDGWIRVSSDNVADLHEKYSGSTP

IC50 [2] [µg/mL]	Compound	also measured
> 10	COc1ccc(CNC(=O)C(CC(C)C)NC(=O)C(CC(C)C)NC(=O)CC2CC(=O)c3ccc(OC)cc32)cc1 (mixture of isomers) [Compound 194]	IC50 inhibition of LPS induced TNF synthesis [1]: 3 µg/mL; IC50 for inhibition of cell proliferation, Panc-I (Panc-I cells): 8 µg/mL; IC50 for inhibition of cell proliferation, OVCAR (OVCAR cells): 3 µg/mL; IC50 for inhibition of cell proliferation, RAW (RAW cells): 1 µg/mL
–	CCC[C@@H](C=O)NC(=O)[C@H](CC(C)C)NC(=O)[C@H](CC(C)C)NC(=O)OCc1ccccc1 [MG 115, N-carbobenzoxyl-L-leucinyl-L-leucinyl-L-norvalinal] (Cbz-Leu-Leu-[Nva]-aldehyde)	Ki [3]: 21 nM
0.08	COc1ccc2c(c1)C(CC(=O)NC(CC(C)C)C(=O)NC(CC(C)C)C(=O)NCc1c(F)cccc1F)CC2=O (mixture of isomers) [Compound 196]	IC50 inhibition of LPS induced TNF synthesis [1]: 3 µg/mL; IC50 for inhibition of cell proliferation, Panc-I (Panc-I cells): 8 µg/mL; IC50 for inhibition of cell proliferation, OVCAR (OVCAR cells): 2 µg/mL; IC50 for inhibition of cell proliferation, RAW (RAW cells): 7 µg/mL
> 10	COc1ccc2c(c1)C(CC(=O)NC(CC1CCCCC1)C(=O)NC(CC(C)C)C(=O)NCC(N)=O)CC2=O (mixture of isomers) [Compound 46]	–
0.2	COc1ccc2c(c1)C(CC(=O)NC(CC(C)C)C(=O)NC(CC(C)C)C(=O)NCc1ccc3c(c1)OCO3)CC2=O (mixture of isomers) [Compound 197]	IC50 inhibition of LPS induced TNF synthesis [1]: 3 µg/mL; IC50 for inhibition of cell proliferation, Panc-I (Panc-I cells): 8 µg/mL; IC50 for inhibition of cell proliferation, OVCAR (OVCAR cells): 2 µg/mL; IC50 for inhibition of cell proliferation, RAW (RAW cells): 12 µg/mL
> 10	COc1ccc2c(c1)C(CC(=O)NC(CC(C)C)C(=O)N1CCCC1C(N)=O)CC2=O (mixture of isomers) [Compound 54]	–
> 10	COc1ccc2c(c1)C(CC(=O)NC(CC(C)C)C(=O)NC(CC(C)C)C(=O)N1CCCC1)CC2=O (mixture of isomers) [Compound 176]	–
> 10	COc1ccc2c(c1)C(CC(=O)NC(CC1CCCCC1)C(=O)NC(CC1CCCCC1)C(N)=O)CC2=O (mixture of isomers) [Compound 35]	–
> 10	COc1ccc2c(c1)C(CC(=O)NCC(=O)NC(CC(C)C)C(=O)NCC(N)=O)CC2=O (mixture of isomers) [Compound 42]	–
> 10	COc1ccc2c(c1)C(CC(=O)N[C@@H](CC(C)C)C(=O)N[C@H](CC1CCCCC1)C(=O)NCC(N)=O)CC2=O (stereo partly shown) [Compound 89]	–
> 10	COc1ccc2c(c1)C(CC(=O)NC(CC(C)C)C(=O)NC(CC(C)C)C(=O)N1CCCCC1)CC2=O (mixture of isomers) [Compound 175]	–
0.5 (≈ 0.995 µM)	COc1ccc2c(c1)C(CC(=O)N[C@@H](CC(C)C)C(=O)N[C@H](CC(C)C)C(=O)NCC(N)=O)CC2=O (single isomer, unassigned) [Compound 50]	–
> 10	COc1ccc2c(c1)C(CC(=O)NC(Cc1ccc(O)cc1)C(=O)NC(CC(C)C)C(N)=O)CC2=O (mixture of isomers) [Compound 102]	–
> 50	COCCN(CCOC)C(=O)CC1CC(=O)c2ccc(OC)cc21 (racemic) [Compound 169]	–
> 10	COc1ccc(NC(=O)CC2CC(=O)c3ccc(OC)cc32)cc1 (stereo not shown) [Compound 121]	–
> 10	CC(C)CC(NC(=O)CC1CC(=O)c2ccccc21)C(=O)NC(CC(C)C)C(=O)NCC(N)=O (mixture of isomers) [Compound 159]	–
> 10	COc1ccc2c(c1)C(CC(=O)NC(C)C(=O)NC(CC(C)C)C(N)=O)CC2=O (mixture of isomers) [Compound 59]	–
> 10	COc1ccc2c(c1)C(CC(=O)Nc1nc(C)cc(Cl)n1)CC2=O (racemic) [Compound 155]	–
> 10	COc1ccc2c(c1)C(CC(=O)NCCO)CC2=O (stereo not shown) [Compound 84]	–
> 10	COc1ccc2c(c1)C(CC(=O)NC(CC(C)C)C(=O)NC(CC(C)C)C(=O)NCCCc1ccccc1)CC2=O (mixture of isomers) [Compound 186]	–
> 10	COc1ccc2c(c1)C(CC(=O)NCC(O)CO)CC2=O (stereo not shown) [Compound 111]	–
> 10	COc1ccc2c(c1)C(CC(=O)N1CCOCC1)CC2=O (stereo not shown) [Compound 63]	–
> 10	COc1ccc(CNC(=O)CC2CC(=O)c3ccc(OC)cc32)cc1 (stereo not shown) [Compound 85]	–

IC50 [2] [µg/mL]	Compound	also measured
> 10	CCCCC(NC(=O)CC1CC(=O)c2ccc(OC)cc21)C(N)=O (mixture of isomers) [Compound 9]	–
> 10	CCCCC(NC(=O)C(CC(C)C)NC(=O)CC1CC(=O)c2ccc(OC)cc21)C(N)=O (mixture of isomers) [Compound 134]	–
> 10	COc1ccc2c(c1)C(CC(=O)NC(CO)C(=O)NC(CC(C)C)C(N)=O)CC2=O (mixture of isomers) [Compound 61]	–
10	COc1ccc2c(c1)C(CC(=O)NC(Cc1ccccc1)C(=O)NC(CC(C)C)C(N)=O)CC2=O (mixture of isomers) [Compound 27]	–
> 10	COc1ccc2c(c1)C(CC(=O)NC(C(=O)NC(C(N)=O)C(C)C)C(C)C)CC2=O (mixture of isomers) [Compound 34]	–
> 10	COc1ccc2c(c1)C(CC(=O)NC(C(=O)NC(CC(C)C)C(=O)NCC(N)=O)c1ccccc1)CC2=O (mixture of isomers) [Compound 48]	–
> 10	COc1ccc2c(c1)C(CC(=O)N1CCC(O)CC1)CC2=O (stereo not shown) [Compound 81]	–
> 10	COc1ccc2c(c1)C(CC(=O)NCc1ccc3c(c1)OCO3)CC2=O (stereo not shown) [Compound 80]	–
> 10	COc1ccc2c(c1)C(CC(=O)NC1CCCC1)CC2=O (stereo not shown) [Compound 74]	–
> 10	COc1ccc2c(c1)C(CC(=O)N1CCC(O)(c3ccccc3)CC1)CC2=O (stereo not shown) [Compound 151]	–
> 10	COc1ccc2c(c1)C(CC(=O)NC(CC(C)C)C(=O)NC(CCC(N)=O)C(N)=O)CC2=O (mixture of isomers) [Compound 137]	–
> 10	COc1ccc2c(c1)C(CC(=O)NCCN1CCCC1)CC2=O (stereo not shown) [Compound 112]	–
> 10	COc1ccc2c(c1)C(CC(=O)NC(CC(C)C)C(=O)NC(C)C(N)=O)CC2=O (mixture of isomers) [Compound 52]	–
> 10	COc1ccc2c(c1)C(CC(=O)NC(CC1CCCCC1)C(=O)NC(CC(C)C)C(N)=O)CC2=O (mixture of isomers) [Compound 13]	–
> 10	COc1ccc2c(c1)C(CC(=O)NC(CC(C)C)C(=O)N(Cc1ccccc1)Cc1ccccc1)CC2=O (mixture of isomers) [Compound 199]	–
> 10	COc1ccc2c(c1)C(CC(=O)NC(Cc1ccccc1)C(=O)NC(CC(C)C)C(N)=O)CC2=O (mixture of isomers) [Compound 14]	–
> 10	COc1ccc2c(c1)C(CC(=O)N(CCO)Cc1ccccc1)CC2=O (stereo not shown) [Compound 76]	–
0.1	COc1ccc2c(c1)C(CC(=O)NC(CC(C)C)C(=O)NC(CC(C)C)C(=O)NCC(N)=O)CC2=O (mixture of isomers) [Compound 21]	–
> 50	COc1ccc2c(c1)C(CC(=O)NCc1ccc3c(c1)OCO3)CC2=O (racemic) [Compound 163]	–
> 10	COc1ccc2c(c1)C(CC(=O)NC(CC1CCCCC1)C(N)=O)CC2=O (mixture of isomers) [Compound 29]	–
> 10	COc1ccc2c(c1)C(CC(=O)NC(CC(C)C)C(=O)N1CCCC1C(=O)NCC(N)=O)CC2=O (mixture of isomers) [Compound 92]	–
> 10	COc1ccc2c(c1)C(CC(=O)NC(CC(C)C)C(=O)NC(CC(C)C)C(=O)NC(Cc1ccccc1)C(N)=O)CC2=O (mixture of isomers) [Compound 128]	–
> 10	COc1ccc2c(c1)C(CC(=O)NC1CCN(Cc3ccccc3)CC1)CC2=O (stereo not shown) [Compound 110]	–

Compound	IC50 [2] [µg/mL]	also measured
COc1ccc2c(c1)C(CC(=O)N(C)C)CC2=O (stereo not shown) [Compound 78]	> 10	–
COc1ccc2c(c1)C(CC(=O)NCc1ccncc1)CC2=O (stereo not shown) [Compound 104]	> 10	–
CCN(CC)C(=O)CC1CC(=O)c2ccc(OC)cc21 (stereo not shown) [Compound 68]	> 10	–
COc1ccc(CN(C(=O)CC2CC(=O)c3ccc(OC)cc32)c2ccccn2)cc1 (stereo not shown) [Compound 149]	> 10	–
COc1ccc2c(c1)C(CC(=O)N(CCC#N)Cc1cccnc1)CC2=O (stereo not shown) [Compound 116]	> 10	–
COc1ccc2c(c1)C(CC(=O)NCCc1ccccc1)CC2=O (stereo not shown) [Compound 65]	> 10	–
